Read-outs that look alike come from different tables or passages of the source.
Key:
[1] = DPPH free radical scavenger assay; settings: DPPH radical scavenging; n = 12
Description: This approach relies on the reduction of the radicals, which causes a change in colour from oxidized purple to reduced yellow. Primarily, Diphenyl-2-picryl-hydrazyl (DPPH) is reduced in a solution of methanol (MeOH) when a chemical that donates hydrogen is present. This reduction is due to the creation of the non-radical form DPPH-H. The alteration in colour can be precisely assessed by employing a spectrophotometer within the wavelength range of 515–520 nm. Unlike other assays for radical scavenging, the DPPH radical is stable and yields consistent spectroscopic data. A 0.2 mM DPPH solution was diluted with MeOH and then combined with treatment compounds and ascorbic acid in a 1:1 concentration ratio using a 96-well plate. […] The solution was then incubated for one hour, isolated from light. Subsequently, the alteration in absorbance at a wavelength of 517 nm was quantified using a microplate reader manufactured by Bio-Tek Instrument in the United States. Ascorbic acid served as a strong and traditional benchmark for comparing the effectiveness of radical scavenging agents. The DPPH radical scavenging activity inhibition was calculated using the following equation, where A denotes photometric absorbance: The formula to calculate the percentage difference between a control and a sample is: (A control – A sample)/ A control x 100% [71, 72].

[2] = test system: LPS-primed RAW 264.7 murine macrophages (nitrite / iNOS); test: Anti-inflammatory (nitrite) determination in LPS-primed macrophages; assay type: cell-based; settings: Mus musculus, read-out: iNOS- IC50 value
Experimental: The RAW 264.7 mouse macrophage cell line (ATCC® TIB-71) was cultivated in high glucose DMEM with 10% foetal bovine serum (FBS), 100 U/mL penicillin, 100 μg/mL streptomycin, and 100 μg/mL L-glutamate. The cells were incubated at 37°C in a humidified environment with 95% air and 5% CO2. Confluent macrophages (2 x 10^5/well) were cultured with lipopolysaccharide (LPS; 20 μg/mL; Sigma, St. Luis, MO, USA) and indomethacin (25–200 μg/mL) as the positive control, along with various concentrations (5–200 μg/mL) of treatment compounds. The cells were incubated for 24 hours. 100 μL of Griess reagent were combined with 100 μL portions of cell culture medium and left to incubate at room temperature for 10 minutes. The absorbance at a wavelength of 550 nm was measured using a microplate reader, namely the Spectro Scan 80D UV-VIS spectrophotometer manufactured by Sedico Ltd. in Nicosia, Cyprus. The nitrite concentration was assessed by comparing it to a standard curve of sodium nitrite. A cytotoxicity protocol using SRB was conducted to assess the impact of the test substances under study on RAW 264.7 viability.

[3] = test system: cancer cell lines (panel); test: SRB cytotoxicity assay, ranges stated over several cancer cell lines; assay type: cell-based; settings: Homo sapiens
Experimental: The cancer cell lines were cultured in DMEM supplemented with 10% FBS (Bio Whittaker, Verviers, Belgium), HEPES Buffer (10 mM), gentamicin (50 µg/mL), L-glutamine (100 μg/mL), streptomycin ([…]), penicillin (100 µg/mL), and 4-(2-hydroxyethyl)-1-piperazineethanesulfonic acid (HEPES) Buffer (Sigma, St. Luis, MO, USA). The Sulforhodamine B used was obtained from Santa Cruz Biotechnology, Inc. in Texas, USA. […] Periodontal ligament fibroblasts (PDL) were utilized to assess specific cytotoxicity. Cancer cell lines that have survived offer several benefits. They provide a consistent and uninterrupted source of cells, so bypassing any ethical concerns related to the use of human tissue. Additionally, they are cost-effective. The cytotoxicity levels were assessed using the Sulforhodamine B (SRB) colorimetric assay, provided by Santa Cruz Biotechnology, Inc. in Texas, USA. The Spectro Scan 80D UV-VIS spectrophotometer, manufactured by Sedico Ltd. in Nicosia, Cyprus, was employed for this cytotoxicity screening. The cells were co-incubated with substances or a reference agent at various doses ranging from 5 to 200 μg/mL. […] The reduction in cell viability was analyzed by plotting Dose-response curves and expressing the data as a percentage of the control optical density. The IC50 values were obtained using regression analysis.

[4] = RAW264.7, LPS-primed RAW 264.7, nitrite by Griess, 24 h, n = 12

Row | IC50 [1] | IC50 [2, 4] | SMILES | IC50 ([3]; Pancreatic cancer cell, after 72 hours of incubation, read-out: IC50, colorectal and pancreatic cancer cells) | IC50 ([3]; A375, A549, PC3, MCF7, T47D, HeLa, read-out: IC50 range, decreases in viability in other cancer cell cultures) | IC50 ([3]; CACO2, HCT116, SW620, HT29, read-out: IC50 range, anti-proliferation in colorectal cancer cells) | IC50 ([3]; Table 3 cell lines, read-out: IC50, skin melanoma, lung carcinoma, mammary and cervix adenocarcinomas) | IC50 ([2]; RAW264.7, 24 h)
1 | 92.1 ± 2.4 µM | 1.19 ± 0.17 µM | Cc1ccc(C(=O)c2cc(O)c(O)c([N+](=O)[O-])c2)cc1 [Tolcapone, reference compound] | – | – | – | – | –
2 | 99.3 ± 15.5 µM | 1.69 ± 0.12 µM | CC(/C=C/C(=O)NO)=C\[C@@H](C)C(=O)c1ccc(N(C)C)cc1 [Trichostatin A, reference compound] | ≤ 27 µM | 1.4 to 14.7 µM | 14 to 27 µM | < 10 µM | –
3 | 26.3 ± 0.65 µM | 3.47 ± 0.49 µM | O=c1cc(O)cc(/C=C/c2ccc(O)c(O)c2)o1 [Hispidin] | – | – | – | – | –
4 | 580 ± 26.5 µM | 1.85 ± 0.34 µM | O=C1c2ccc(O)c(O)c2C(=O)c2c(O)ccc(O)c21 [Quinalizarin] | – | – | – | – | –

Row | SMILES | IC50 [1] | IC50 [2, 4] | IC50 ([3]; Pancreatic cancer cell, after 72 hours of incubation, read-out: IC50, colorectal and pancreatic cancer cells) | IC50 ([3]; A375, A549, PC3, MCF7, T47D, HeLa, read-out: IC50 range, decreases in viability in other cancer cell cultures) | IC50 ([3]; CACO2, HCT116, SW620, HT29, read-out: IC50 range, anti-proliferation in colorectal cancer cells) | IC50 ([3]; Table 3 cell lines, read-out: IC50, skin melanoma, lung carcinoma, mammary and cervix adenocarcinomas) | IC50 ([2]; RAW264.7, 24 h)
5 | CC(C)=CC[C@@H](O)C1=CC(=O)c2c(O)ccc(O)c2C1=O [Shikonin] | 34.4 ± 5.04 µM | – | – | – | – | – | 0.27 ± 0.05 µM
6 | C[C@]12CC[C@@H]3c4ccc(O)c(O)c4CC[C@H]3[C@@H]1CC[C@@H]2O [4-hydroxy-estradiol] | 506 ± 102 µM | 0.25 ± 0.04 µM | – | – | – | – | –

Source: PMC12527173, “Cytotoxic, anti-inflammatory, antioxidant, and anti-glyoxalase-I evaluation of chelating substances: In silico and in vitro study” (PLOS One, 2025)
